Experiments:
IGF-1 = experiment: Gene expression in islets from diabetic KKAy-mice, real time RT-PCR (Example 2): IGF-1; format: in vivo; settings: islets of KKAy-mice after nine weeks treatment, normalized to 18S rRNA
Procedure: (§1) A the end of the nine week period of the in vivo study in example 1 RNA was purified from Islets, muscle, liver and fat from the three experimental groups, using standard techniques as described in Kiergen, RNA easy.
(§2) Gene expression of PDX-1, IRS1, Beta2, 11beta-HSD-1, Akt1, C/EBP-alpha, CPT1, GLUT2, IGF1, IR and Ins1 was measured with Real time RT-PCR using Taq Man Assays normalized to 18S rRNA, using the standard protocol (ABI, USA). All reagents were obtained from (ABI, USA). All probes are standard probes obtainable from ABI, USA, under the specific probe code number, given in respect of each gene.

11beta-HSD1 = experiment: Gene expression in islets from diabetic KKAy-mice, real time RT-PCR (Example 2): 11beta-HSD1; format: in vivo; settings: islets of KKAy-mice after nine weeks treatment, normalized to 18S rRNA
Procedure: as §1, §2

IR = experiment: Affymetrix gene chip analysis of KKAy islets: IR; format: in vivo, mice; settings: ISV vs. KKAy control islets, 9 weeks
Procedure: cRNA preparation and in vitro transcription: In total 6 Affymetrix arrays MOE430 2.0 probe array cartridge were used i.e. for analysis of 3 replicas for the KKAy control group and the ISV group, respectively. Each of the 6 samples consisted of pooled RNA from 3-4 KKAy mice. Preparation of target for hybridization was prepared from 340 ng of total RNA using MessageAmp™ II aRNA Amplification Kits (Ambion), according to the manufacturers instructions. Arrays were hybridised and scanned as described elsewhere (Kruhoffer et al., 2005).

INS-1 = experiment: Gene expression in islets from diabetic KKAy-mice, real time RT-PCR (Example 2): INS-1; format: in vivo; settings: islets of KKAy-mice after nine weeks treatment, normalized to 18S rRNA
Procedure: as §1, §2

PDX-1 = experiment: Gene expression in islets from diabetic KKAy-mice, real time RT-PCR (Example 2): PDX-1; format: in vivo; settings: islets of KKAy-mice after nine weeks treatment, normalized to 18S rRNA
Procedure: as §1, §2

C/EBP-alpha = experiment: Gene expression in islets from diabetic KKAy-mice, real time RT-PCR (Example 2): C/EBP-alpha; format: in vivo; settings: islets of KKAy-mice after nine weeks treatment, normalized to 18S rRNA
Procedure: as §1, §2

C/EBPalpha = experiment: Relative real time RT-PCR in islets of KKAy mice (Example 3): C/EBPalpha; format: in vivo; settings: 9 weeks
Procedure: Islets were isolated by the collagenase digestion technique. In brief, the animals were anesthetized with pentobarbital (50 mg/kg intraperitoneally) and midline laparotomy was performed. The pancreas was retrogradely filled with 3 mL ice-cold Hanks balanced salt solution (([HBSS] Sigma Chemical, St Louis, Mo.) supplemented with 0.3 mg/ml collagenase Boehringer Mannheim GmbH, Germany). The pancreas was subsequently removed and incubated for 19 minutes at 37° C. After rinsing in HBSS, the islets were handpicked under a stereomicroscope and immediately transferred to a tubes containing 1 ml Trizol (Gibco/Invitrogene, Calsbad, Calif., USA). The islets isolated from the NMRI mice were incubated overnight at 37° C. and 95% normal atmosphere/5% CO2 in 10 ml RPMI 1640 containing 11.1 mmol/L glucose supplemented with penicillin G and 100 μg/mL streptomycin (all Gibco/Invitrogene, Calsbad, Calif., USA).
For each group, islets from 3-4 mice (180-200 islets) were pooled in 1 ml Trizol reagent (Gibco/lnvitrogene, Calsbad, Calif., USA) before RNA purification. Total RNA was extracted according to the manufactures' instructions. RNA was quantified by measuring absorbance at 260 and 280 nm. The quality of the RNA was checked by the Agilent 2100 bioanalyzer (Agilent, Santa Clara, USA). […]

GLUT-2 = experiment: Gene expression in islets from diabetic KKAy-mice, real time RT-PCR (Example 2): GLUT-2; format: in vivo; settings: islets of KKAy-mice after nine weeks treatment, normalized to 18S rRNA
Procedure: as §1, §2

With `C[C@@]12CC[C@@H]3[C@@](CC[C@H]4[C@@]3(C)CCC[C@@]4(C)C(=O)O)(CC1=O)C2` (single isomer, unassigned; ent-16) [ISV, ent-16-ketobeyeran-19-oic acid] the “decreased expression of IGF1 compared to standard diet” value (IGF-1) was 46%, the “decreased expression of 11beta-HSD1 compared to standard diet” value (11beta-HSD1) was 61% and the “array: change of IR expression” value (IR) was “no changes”. The “increased expression of INS-1 compared to standard diet” value (INS-1) was 132%, the “increased expression of PDX-1 compared to standard diet” value (PDX-1) was 96% and the “decreased expression of C/EBPα compared to standard diet” value (C/EBP-alpha) was 49%. For the same compound, the “reduction of C/EBP-alpha mRNA expression” value (C/EBPalpha; RT-PCR) was 2 fold, the “decreased expression of C/EBPalpha, ISV group vs. control group” value (C/EBPalpha; normalized to 18S rRNA) was 49% and the “increased expression of GLUT-2 compared to standard diet” value (GLUT-2) was 60%.
